Measurements: ChEMBL document CHEMBL4483862, “Open-source discovery of chemical leads for next-generation chemoprotective antimalarials” (2018)

Tested on: Plasmodium berghei
Experiment: Luciferase/luciferin-expressing antifolate-resistant parasites were used to infect a culture of HepG2 cells that were pre-incubated with compounds. Infected hepatocytes emit light due to the luciferase reaction. Assay results are presented as the percent inhibition of light emission compared to control. […]
Type: functional
Conditions: sporozoite; for IC90: read-out: LUCIFERASE INFECTION ASSAY - IC90
[1] = read-out: LUCIFERASE INFECTION ASSAY - IC50

## CC(C)(C)c1ccc(OCC(=O)NNC(=O)Cc2csc(-c3ccccc3)n2)cc1
[1]
  IC50: > 10 µM
  IC90: > 10 µM

## Cc1nn(C(=O)c2c(Cl)cccc2Cl)c(C)c1Cc1c(F)cccc1Cl
[1]
  IC50: 7 µM
  IC90: > 8.02 µM

## Cc1cc2ncc(-c3ccnc(SCC(=O)c4ccc(Cl)cc4)n3)c(C)n2n1
[1]
  IC50: > 8.05 µM
  IC90: > 8.05 µM

## CCC(CC)c1nn(CC(=O)c2cc(C)n(CCOC)c2C)c(=N)s1
PBLUC_HILL_SLOPE 8.4, PBLUC_R_SQUARED 0.0548, read-out: LUCIFERASE INFECTION ASSAY - IC50
  IC50: 9.17 µM
  IC90: > 10 µM

## FC(F)Sc1ccc(NC(=S)NC2CCCc3ccccc32)cc1 (centres undefined)
[1]
  IC50: > 10 µM
  IC90: > 10 µM

## Cc1csc(-c2nc(-c3ccc(C(C)(C)C)cc3)no2)c1
[1]
  IC50: > 11.1 µM
  IC90: > 11.1 µM

## CC(C)c1ccc(-n2c(SCc3ccc([N+](=O)[O-])cc3)nnc2-c2ccc(C(C)(C)C)cc2)cc1
[1]
  IC50: > 6.78 µM
  IC90: > 6.78 µM

## COc1ccc(-c2nc(C)c(C(=O)NCc3ccc(-n4cccn4)nc3)s2)cc1
[1]
  IC50: > 10 µM
  IC90: > 10 µM

## Cc1ccc(-n2nc(C)c(/C=C3\SC(=S)N(c4ccc(C(=O)O)cc4)C3=O)c2Cl)c(C)c1
[1]
  IC50: 9.42 µM
  IC90: > 10 µM

## Clc1cccc(-c2cnn3c(NCCCN4CCOCC4)ccnc23)c1
PBLUC_HILL_SLOPE 1.37, PBLUC_R_SQUARED 0.567, read-out: LUCIFERASE INFECTION ASSAY - IC50
  IC50: 3.66 µM
  IC90: > 8.87 µM

## COCCOc1ccc(C(F)(F)F)cc1NC(=O)COc1ccc2ccc(=O)oc2c1
[1]
  IC50: > 10 µM
  IC90: > 10 µM

## C=C(C)COc1ccc(-c2[nH]nc(C)c2-c2ccc(OC)c(OC)c2)c(O)c1
HEPG2TOX_HILL_SLOPE 1.51, HEPG2TOX_R_SQUARED 0.867, PBLUC_HILL_SLOPE 1.78, PBLUC_R_SQUARED 0.654, read-out: LUCIFERASE INFECTION ASSAY - IC50
  IC50: 0.535 µM
  IC90: 1.84 µM

## O=C(O)C1C2C=CC(O2)C1C(=O)Nc1ccc(OC(F)(F)F)cc1 (centres undefined)
PBLUC_HILL_SLOPE 1.22, PBLUC_R_SQUARED 0.106, read-out: LUCIFERASE INFECTION ASSAY - IC50
  IC50: > 9.61 µM
  IC90: > 9.61 µM

## CCCCN(C(=O)c1csc(-c2ccc(C(C)C)cc2)n1)c1c(N)n(CCC)c(=O)[nH]c1=O
[1]
  IC50: > 10 µM
  IC90: > 10 µM

## Cc1ccsc1/C=C/c1ccc2cccc(O)c2n1
PBLUC_HILL_SLOPE 14, PBLUC_R_SQUARED 0.406, read-out: LUCIFERASE INFECTION ASSAY - IC50
  IC50: 9.41 µM
  IC90: > 10 µM

## Cc1cccc(Cn2nc(C(C)(C)C)cc2C(=O)Nc2cccc(OC(F)(F)F)c2)c1
PBLUC_HILL_SLOPE 1.23, PBLUC_R_SQUARED 0.161, read-out: LUCIFERASE INFECTION ASSAY - IC50
  IC50: > 7.65 µM
  IC90: > 7.65 µM

## O=c1ccn(-c2ccc(Cl)cc2)nc1-c1ccnc(-c2ccccc2)n1
[1]
  IC50: > 9.15 µM
  IC90: > 9.15 µM

## N=C(NS(=O)(=O)c1cc(C(F)(F)F)cc(C(F)(F)F)c1)c1ccc(Cl)cc1
HEPG2TOX_HILL_SLOPE 0.0636, HEPG2TOX_R_SQUARED 0.0519, read-out: LUCIFERASE INFECTION ASSAY - IC50
  IC50: > 7.66 µM
  IC90: > 7.66 µM

## O=c1[nH]nc(SCc2ccc([N+](=O)[O-])cc2)n1CC1CCCO1 (centres undefined)
[1]
  IC50: > 10 µM
  IC90: > 10 µM

## CCc1cccc2c(/C=C(\C#N)C(=O)C(C)(C)C)c[nH]c12
PBLUC_HILL_SLOPE 0.872, PBLUC_R_SQUARED 0.606, read-out: LUCIFERASE INFECTION ASSAY - IC50
  IC50: 6.24 µM
  IC90: > 10 µM

## C/C(=N\NC(=S)NCC(C)(C)C)c1cc(F)ccc1O
[1]
  IC50: > 11.1 µM
  IC90: > 11.1 µM

## COc1ccc(C(=O)C2CCN(c3nn4cc(C(C)(C)C)nc4s3)CC2)cc1
[1]
  IC50: 3.34 µM
  IC90: 4.16 µM

## COc1ccc(-c2cnc3cnc(-c4cccc(F)c4)cn23)cc1
HEPG2TOX_HILL_SLOPE 2.64, HEPG2TOX_R_SQUARED 0.99, PBLUC_HILL_SLOPE 1.99, PBLUC_R_SQUARED 0.779, read-out: LUCIFERASE INFECTION ASSAY - IC50
  IC50: 2.36 µM
  IC90: 7.12 µM

## Cc1cc(C)c(CSCCNC2=CC(=O)CC(c3ccc(Cl)cc3)C2)c(C)c1 (centres undefined)
[1]
  IC50: > 7.97 µM
  IC90: > 7.97 µM

## COc1ccc(OCCCN2CCN(C(=O)C34CC5CC(CC(C5)C3)C4)CC2)cc1
[1]
  IC50: > 10 µM
  IC90: > 10 µM

## Cc1c(Cl)cccc1NC(=O)CNC(=O)CN1CCc2ccccc2C1
[1]
  IC50: > 10 µM
  IC90: > 10 µM

## CC(C)(C)CC(=O)Nc1ccc2nc(-c3cccs3)nn2c1
PBLUC_HILL_SLOPE 0.64, PBLUC_R_SQUARED 0.361, read-out: LUCIFERASE INFECTION ASSAY - IC50
  IC50: 2.36 µM
  IC90: > 10 µM

## CCCCOc1ccc(/C=C/C(=O)NNC(=O)Cc2nc3ccccc3n2C)cc1OCC
HEPG2TOX_HILL_SLOPE 2.18, HEPG2TOX_R_SQUARED 0.787, PBLUC_HILL_SLOPE 13.4, PBLUC_R_SQUARED 0.401, read-out: LUCIFERASE INFECTION ASSAY - IC50
  IC50: 7.73 µM
  IC90: 9.1 µM

## Cc1nnc(NC(=O)c2cn(-c3ccccc3)nc2-c2ccccc2C)o1
HEPG2TOX_HILL_SLOPE 0.258, HEPG2TOX_R_SQUARED 0.871, PBLUC_HILL_SLOPE 2.72, PBLUC_R_SQUARED 0.839, read-out: LUCIFERASE INFECTION ASSAY - IC50
  IC50: 0.114 µM
  IC90: 0.255 µM

## CCOC(=O)c1c(C)[nH]c(C(=O)CSc2nnc(C3CC3)n2N)c1C
PBLUC_HILL_SLOPE 1.71, PBLUC_R_SQUARED 0.964, read-out: LUCIFERASE INFECTION ASSAY - IC50
  IC50: 0.235 µM
  IC90: 0.847 µM

## CC(Nc1ccc(Cc2nc3ccccc3s2)cc1)C(=O)N1CCNC1=O (centres undefined)
PBLUC_HILL_SLOPE 6.15, PBLUC_R_SQUARED 0.163, read-out: LUCIFERASE INFECTION ASSAY - IC50
  IC50: 6.81 µM
  IC90: 9.74 µM

## Cc1nn(C)c2ncc(C(=O)Nc3ccc(F)c(Cl)c3)c(SC(C)C)c12
[1]
  IC50: > 8.4 µM
  IC90: > 8.4 µM

## CC(Oc1ccc(Oc2ccc(C(F)(F)F)cc2)cc1)C(=O)N1CCN(c2ccc(C(F)(F)F)cn2)CC1 (centres undefined)
HEPG2TOX_HILL_SLOPE 2.54, HEPG2TOX_R_SQUARED 0.907, PBLUC_HILL_SLOPE 2.4, PBLUC_R_SQUARED 0.3, read-out: LUCIFERASE INFECTION ASSAY - IC50
  IC50: 3 µM
  IC90: > 6.12 µM

## COCCNCCOc1ccc(OCc2ccccc2)cc1
[1]
  IC50: > 10.9 µM
  IC90: > 10.9 µM

## CCN(CC)S(=O)(=O)c1ccc(-c2csc(Nc3ccccn3)n2)cc1
[1]
  IC50: > 10 µM
  IC90: > 10 µM

## O=C(Nc1nc(-c2ccccn2)cs1)c1cc([N+](=O)[O-])ccc1N1CCC(Cc2ccccc2)CC1
[1]
  IC50: > 10 µM
  IC90: > 10 µM

## CC1(C(=O)NCc2cccs2)Cc2c(-c3ccccc3)ccnc2O1 (centres undefined)
FFLUC_HILL_SLOPE 0.144, FFLUC_R_SQUARED 0.18, HEPG2TOX_HILL_SLOPE 3.88, HEPG2TOX_R_SQUARED 0.701, PBLUC_HILL_SLOPE 8.35, PBLUC_R_SQUARED 0.0479, read-out: LUCIFERASE INFECTION ASSAY - IC50
  IC50: 7.82 µM
  IC90: > 9.42 µM

## O=C(NCC1COc2ccccc2O1)c1cc2ccccc2cc1O (centres undefined)
[1]
  IC50: > 10 µM
  IC90: > 10 µM

## CCNC(=O)c1cccc(Nc2ccc(C(=O)c3ccccc3)cc2)c1
PBLUC_HILL_SLOPE 4.36, PBLUC_R_SQUARED 0.612, read-out: LUCIFERASE INFECTION ASSAY - IC50
  IC50: 5.2 µM
  IC90: 8.6 µM

## Cc1cc(C(=O)Oc2ccccc2C(N)=O)c(C)n1Cc1ccco1
PBLUC_HILL_SLOPE 14.9, PBLUC_R_SQUARED 0.682, read-out: LUCIFERASE INFECTION ASSAY - IC50
  IC50: 1.09 µM
  IC90: 1.27 µM

## Cc1ccc2nc(-c3ccc(NC(=O)COC(=O)c4ccccc4C(=O)c4ccccc4)cc3)sc2c1
[1]
  IC50: > 10 µM
  IC90: > 10 µM

## CC(C)(C)c1ccc(Oc2ccc(N)cc2)cc1
PBLUC_HILL_SLOPE 1.38, PBLUC_R_SQUARED 0.811, read-out: LUCIFERASE INFECTION ASSAY - IC50
  IC50: 0.942 µM
  IC90: 4.63 µM

## Cc1nnsc1C(=O)Nc1cccc(C(F)(F)F)c1
HEPG2TOX_HILL_SLOPE 2.18, HEPG2TOX_R_SQUARED 0.919, PBLUC_HILL_SLOPE 3.32, PBLUC_R_SQUARED 0.374, read-out: LUCIFERASE INFECTION ASSAY - IC50
  IC50: 5.46 µM
  IC90: 10.6 µM

## COc1ccc(NC(=O)C(c2ccccc2)N2CCN(C)CC2)cc1Cl (centres undefined)
[1]
  IC50: > 10 µM
  IC90: > 10 µM

## Cc1[nH]nc2ccnc(-c3cccc(OC(F)(F)F)c3)c12
[1]
  IC50: > 10 µM
  IC90: > 10 µM

## COc1cc(OC)cc(OCC(O)Cn2ccnc2)c1 (centres undefined)
[1]
  IC50: > 11.9 µM
  IC90: > 11.9 µM

## CC12C/C(=C\c3ccccc3)C(O)CC1CCC1C2CCC2(C)C1CC[C@]2(C)O (some centres undefined)
FFLUC_HILL_SLOPE 0.541, FFLUC_R_SQUARED 0.353, PBLUC_HILL_SLOPE 12.3, PBLUC_R_SQUARED 0.0329, read-out: LUCIFERASE INFECTION ASSAY - IC50
  IC50: > 8.36 µM
  IC90: > 8.36 µM

## CC(=O)NCCC(=O)N(c1ccc(Oc2ccccc2)cc1)c1nc2ccccc2s1
PBLUC_HILL_SLOPE 4.74, PBLUC_R_SQUARED 0.599, read-out: LUCIFERASE INFECTION ASSAY - IC50
  IC50: 6.78 µM
  IC90: > 10 µM

## O=C(NCc1sccc1CSc1ccc(Cl)cc1)Nc1cccc(C(F)(F)F)c1
HEPG2TOX_HILL_SLOPE 8.54, HEPG2TOX_R_SQUARED 0.938, PBLUC_HILL_SLOPE 7.51, PBLUC_R_SQUARED 0.41, read-out: LUCIFERASE INFECTION ASSAY - IC50
  IC50: 3.79 µM
  IC90: 5.08 µM

## Cc1ccc(NC(=O)Nc2ccc3nc(-c4ccccc4)nn3c2)cc1
[1]
  IC50: > 10 µM
  IC90: > 10 µM

## c1ccc(CN2CCC(Nc3nc(-c4ccccn4)nc4scc(-c5ccccc5)c34)CC2)cc1
[1]
  IC50: > 10 µM
  IC90: > 10 µM

## CCC(C)(C)c1ccc(Oc2ccc(NC(=O)CN3CCN(c4ccccc4O)CC3)cc2)cc1
HEPG2TOX_HILL_SLOPE 8.11, HEPG2TOX_R_SQUARED 0.399, read-out: LUCIFERASE INFECTION ASSAY - IC50
  IC50: > 10 µM
  IC90: > 10 µM
